Source: PMC7381267, “A Bromodomain-Containing Protein 4 (BRD4) Inhibitor Suppresses Angiogenesis by Regulating AP-1 Expression” (Frontiers in Pharmacology, 2020)
pIC50: −log10 of the molar value. Where two headings read alike, the source gives them in different places.

Assays:
[1] = system: chick embryo CAM vasculature; assay: Chick embryo chorioallantoic membrane (CAM) anti-angiogenesis assay; assay type: in vivo; settings: 48 h; for Inhibitory effect on microvessel density (MVD) / Inhibitory effect on MVD compared with (+)-JQ1 / Positive Ratio: 50 μg/ml; for Inhibitory effect on microvessel density (MVD) / Inhibition of MVD compared to DMSO / Inhibitory effect on MVD compared with (+)-JQ1 / Inhibitory efficacy on MVD compared with (+)-JQ1: CAM; for Inhibitory effect on microvessel density (MVD) / Inhibitory effect on MVD compared with (+)-JQ1: Figure 1C; for Inhibition of MVD compared to DMSO: 25, 50 and 100 μM, Figure 2F; for Anti-angiogenic activity, egg number 1: egg 1; for Anti-angiogenic activity, egg number 3: egg 3; for Anti-angiogenic activity, egg number 5: egg 5; for Inhibitory efficacy on MVD compared with (+)-JQ1: at each of 25, 50 and 100 μM; for Positive Ratio: embryos with ++ and +++ compared with total number of embryos; for Anti-angiogenic activity, egg number 2: egg 2; for Anti-angiogenic activity, egg number 4: egg 4
Procedure: Fertilized white leghorn chicken eggs were obtained from the Avian Farm of South China Agriculture University (Guangzhou, China) and the shells were cleaned with 1% geramine. […] A small window (10 × 10 mm^2) was cut above the air chamber of egg while the chick embryo was growing through the ninth day. BET family member inhibitors or DMSO (dissolved in 30 µl of phosphate-buffered saline [PBS, pH 7.4]) were placed directly onto the live chick embryo CAM through the window at the indicated concentrations and incubated for 48 h. Then, the eggshells were cut carefully along the axis of the median line, and the content was discarded. The CAM vasculature around the eggshell windows was observed and photographed under a stereomicroscope (Olympus SZX16). The microvessel density (MVD) was calculated as the percentage of blood vessel area in the total drug-treated area using the Image-Pro Plus 6.0 software (IPP 6.0, Media Cybernetics, Inc., Rockville MD, USA).
The effects of all these selected compounds on angiogenesis were first determined through use of the chick embryo CAM model. […] Each of the compounds (50 μg/ml) was added to the CAM of 9-day-old chick embryos for 48 h. The CAMs of chick embryos were photographed, and the inhibition ratio indicating angiogenesis was calculated and analyzed. […] An inhibitory effect observable but not obvious on the generation of third-grade vessels was indicated by “+”; an obvious medium-level inhibitory effect on secondary vessels was indicated by “++”; and an obvious potent inhibitory effect on primary blood vessels was indicated by “+++”.

chick embryo YSM vessels = assay: Chick embryo yolk sac membrane (YSM) anti-angiogenesis assay; assay type: in vivo; settings: 100 μM, 24 h; for Blood vessel density and number of blood vessels compared with DMSO: YSM of 3-day-old chick embryos
Procedure: On the third day of incubation, the well-developed live chicken embryos were carefully transferred into sterilized dishes, and the chick embryo vessels were arranged to face upward. Color marked silastic rings were symmetrically placed onto the top of the vessel regions of the yolk sac membrane and incubated for 3 h in the incubator. Then, 100 μM BET family member inhibitors or DMSO (dissolved in 30 µl of PBS, pH 7.4) was added into the center of the rings and cultured in the incubator for 24 h. Images of the vessels in the silastic rings were captured at 0 and 24 h, respectively. The images were quantitatively analyzed by Image-Pro Plus 6.0, and then the number of blood vessels 24 h after drug treatment and the MVD at 0 and 24 h were quantified using IPP 6.0. The growth rate in the DMSO-treated silica gel circle was considered to be one.

HUVECs [2] = assay: Cell viability by CCK-8 assay; assay type: cell-based, human; settings: for Cell viability compared with DMSO or (−)-JQ1: 8.5 μM, 96 h; for pIC50: Homo sapiens, HUVEC, read-out: 50% inhibition concentration of cell viability
Procedure: Cell viability after BET family member inhibitor treatment was evaluated by CCK-8 assay. HUVECs were seeded in 96-well plates at a density of 2,000 cells/well. Twenty-four hours later, the BET family member inhibitors, (−)-JQ1 (negative control drug) and DMSO (solvent group) were added at the indicated concentrations. […] The absorbance was evaluated at 450 nm to determine cell viability.
Furthermore, (−)-JQ1 was employed as a negative control, and DMSO was employed as a solvent control. […].

[3] = system: c-jun and c-fos (AP-1) in HUVECs; assay: Immunoblot of AP-1 components; assay type: cell-based, human; settings: 48 h
Procedure: Then, the proteins of these cells were extracted using RIPA buffer and separated by 10% (w/v) sodium dodecyl sulphate-polyacrylamide gel electrophoresis (SDS-PAGE). The separated proteins were transferred onto a polyvinylidene fluoride (PVDF) membrane (Millipore, MA, USA) and blocked using 5% (w/v) non-fat powder milk at room temperature. Next, the membranes were incubated in the relative primary antibody and horseradish peroxidase (HRP)-conjugated secondary antibodies. Then, the Image Quant LAS 4000 system (GE Healthcare, Waukesha, WI, USA) was used for the direct visualization of the membranes. The protein bands were densitometrically quantified using Quantity-One protein analysis software (Bio-Rad Laboratories, Hercules, CA, USA). The relative expression of the proteins was normalized to the expression of glyceraldehyde-3-phosphate dehydrogenase (GAPDH).
[…]. […] […].

HUVECs [4] = assay: Tube formation assay; settings: 8.5 μM, 48 h pretreatment, then 5 h on Matrigel
Procedure: The circumference of the formed tubes was measured under an inverted light microscope.

BRD2 BD1 = target: T1, BRD2 BD1 (Homo sapiens, UniProt P25440); assay: TR-FRET assay, BRD2 BD1; assay type: binding
T1 construct: purchased Cayman Chemical
Procedure: (§1) The specificity of the designed and synthesized compounds for BRD4 was also evaluated through comparison with those for BRD2.
(§2) As acetylated histone peptides are known substrates for bromodomain-containing proteins, we initially screened the complexes for their ability to modulate the protein–protein interaction between acetylated lysine and BET family members. […] Then, the IC50 of the compounds that prevent BRD4 (BD1 or BD2)/BRD2 (BD1 or BD2) and acetylated histone interactions was calculated by TR-FRET assay in vitro.

BRD2 BD2 = target: T2, BRD2 BD2 (Homo sapiens, UniProt P25440); assay: TR-FRET assay, BRD2 BD2; assay type: binding
T2 construct: purchased Cayman Chemical
Procedure: as §1, §2

BRD4 BD1 = target: T3, BRD4 BD1 (Homo sapiens, UniProt O60885); assay: TR-FRET assay, BRD4 BD1; assay type: binding
T3 construct: purchased Cayman Chemical
Procedure: as §1, §2

BRD4 BD2 = target: T4, BRD4 BD2 (Homo sapiens, UniProt O60885); assay: TR-FRET assay, BRD4 BD2; assay type: binding
T4 construct: purchased Cayman Chemical
Procedure: as §1, §2

H3K122Ac = system: H3K122Ac; parameters: method as in Liu et al., 2020; settings: ref Liu et al., 2020; cited from earlier work
[5] = 50 μg/ml on CAM of 9-day-old chick embryos

T1 sequence (P25440 74-180 limits assumed): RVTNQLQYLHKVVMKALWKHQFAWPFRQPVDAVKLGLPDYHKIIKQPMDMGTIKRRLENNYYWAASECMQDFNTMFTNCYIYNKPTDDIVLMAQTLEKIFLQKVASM
T2 sequence (P25440 344-453 limits assumed): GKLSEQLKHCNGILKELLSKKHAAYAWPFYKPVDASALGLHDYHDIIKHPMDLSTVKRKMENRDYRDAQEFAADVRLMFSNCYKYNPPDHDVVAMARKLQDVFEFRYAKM

Cc1sc2c(c1C)C(c1ccc(Cl)cc1)=N[C@@H](CC(=O)OC(C)(C)C)c1nnc(C)n1-2 [(+)-JQ1 (1), reference compound]
Inhibitory effect on microvessel density (MVD) [1]: most impressive inhibitory effect on MVD | Inhibition of MVD compared to DMSO [1]: significantly inhibited MVD in a concentration-dependent manner | Blood vessel density and number of blood vessels compared with DMSO (chick embryo YSM vessels): significantly reduced | Cell viability compared with DMSO or (−)-JQ1 (HUVECs [2]; HUVECs): significantly suppressed cell viability | pIC50 (HUVECs [2]): 5.30 | Expression of c-jun compared with DMSO [3]: significantly inhibited the expression of c-jun | Phosphorylation of c-jun and c-fos compared with DMSO [3]: significantly inhibited | Tube formation (tube circumference) compared with DMSO (HUVECs [4]): reduction in tube circumference

COc1cc(OC)c2c(=O)cc(-c3ccc(OCC(O)CN4CCCCC4)cc3)oc2c1 (stereo not drawn) [HJC5100(16)]
Anti-angiogenic activity, egg number 1 [1, 5]: + | Anti-angiogenic activity, egg number 3 [1, 5]: +

Cc1cc(/N=N/c2ccc(S(=O)(=O)Nc3ccccn3)cc2)c(N)cc1O [MS436 (3), reference compound]
Anti-angiogenic activity, egg number 5 [1, 5]: + | Inhibitory effect on MVD compared with (+)-JQ1 [1]: better than that of the (+)-JQ1 positive control | Inhibitory effect on microvessel density (MVD) [1]: most impressive inhibitory effect on MVD | Inhibition of MVD compared to DMSO [1]: significantly inhibited MVD in a concentration-dependent manner | Inhibitory efficacy on MVD compared with (+)-JQ1 [1]: stronger inhibitory efficacy than (+)-JQ1 | pIC50 (BRD2 BD1): 6.10 | pIC50 (BRD2 BD2): 6.07

CC(C)(C)c1cc(-c2nnc(-c3cc(F)c(F)c(F)c3)o2)no1 [ZL0164(4)]
Anti-angiogenic activity, egg number 5 [1, 5]: + | Positive Ratio [1]: 2/5

Cc1cc(N=Nc2ccc(S(=O)(=O)N3CCCC3)cc2)c(N)cc1O [ZL0452(5)]
Anti-angiogenic activity, egg number 2 [1, 5]: + | Anti-angiogenic activity, egg number 4 [1, 5]: + | Positive Ratio [1]: 1/4

Cc1cc(N=Nc2ccc(S(=O)(=O)NC3CCCC3)cc2)cc(C)c1O [ZL0453(6)]
Anti-angiogenic activity, egg number 1 [1, 5]: + | Anti-angiogenic activity, egg number 4 [1, 5]: + | Anti-angiogenic activity, egg number 5 [1, 5]: + | Positive Ratio [1]: 1/5

Cc1cc(/N=N/c2ccc(S(=O)(=O)NC3CCCC3)cc2)c(N)cc1O [ZL0454 (2)]
Anti-angiogenic activity, egg number 5 [1, 5]: + | Inhibitory effect on microvessel density (MVD) [1]: most impressive inhibitory effect on MVD | Inhibition of MVD compared to DMSO [1]: significantly inhibited MVD in a concentration-dependent manner | Inhibitory efficacy on MVD compared with (+)-JQ1 [1]: stronger inhibitory efficacy than (+)-JQ1

COc1cc(OC)c2c(=O)cc(-c3cc(C)c(OC[C@H](O)CN4CCCCC4)c(C)c3)oc2c1 [ZL0513 (7)]
Anti-angiogenic activity, egg number 4 [1, 5]: + | Inhibitory effect on MVD compared with (+)-JQ1 [1]: better than that of the (+)-JQ1 positive control | Inhibitory effect on microvessel density (MVD) [1]: most impressive inhibitory effect on MVD | Positive Ratio [1]: 4/5 | Inhibition of MVD compared to DMSO [1]: significantly inhibited MVD in a concentration-dependent manner | Inhibitory efficacy on MVD compared with (+)-JQ1 [1]: stronger inhibitory efficacy than (+)-JQ1 | Inhibition efficacy on angiogenesis in YSM compared with (+)-JQ1 (chick embryo YSM vessels): significantly higher than that of (+)-JQ1 (1) treatment | Blood vessel density and number of blood vessels compared with DMSO (chick embryo YSM vessels): significantly reduced | Selectivity window to BRD4 over BRD2 (BRD4 BD1; BRD4 versus BRD2): 10 fold | pIC50 (BRD4 BD1; TR-FRET): 7.17 | pIC50 (BRD4 BD2): 6.16 | pIC50 (BRD2 BD1): 6.10 | pIC50 (BRD2 BD2): 6.07 | Cell viability compared with DMSO or (−)-JQ1 (HUVECs [2]; HUVECs): significantly suppressed cell viability | pIC50 (HUVECs [2]; HUVECs, CCK-8, concentration range 0.3 to 15 μM): 5.07 | Expression of c-jun compared with DMSO [3]: significantly inhibited the expression of c-jun | Phosphorylation of c-jun and c-fos compared with DMSO [3]: significantly inhibited | Effect on poly(I:C)-induced H3K122Ac (H3K122Ac): block poly(I:C)-induced H3K122Ac | Tube formation (tube circumference) compared with DMSO (HUVECs [4]): reduction in tube circumference

Cc1cc(N=Nc2ccc3c(c2)CCC(=O)N3)c(N)cc1O [ZL0518(8)]
Anti-angiogenic activity, egg number 6 ([1]; 50 μg/ml on CAM of 9-day-old chick embryos, egg 6): + | Positive Ratio [1]: 1/3

COc1cc(OC)c2c(=O)cc(-c3ccc(OCC4CO4)cc3)oc2c1 (stereo not drawn) [ZL0519 (9)]
Positive Ratio [1]: 3/4

COC(=O)C1CCCN1S(=O)(=O)c1ccc(NC(=O)c2ccc(C(F)(F)F)cc2)cc1 (stereo not drawn) [ZL0520(10)]
Anti-angiogenic activity, egg number 1 [1, 5]: + | Anti-angiogenic activity, egg number 4 [1, 5]: + | Positive Ratio [1]: 1/5

Cc1ccc(S(=O)(=O)OC[C@@H]2CCCN2S(=O)(=O)c2ccc(NC(=O)Nc3ccc(C(F)(F)F)cc3)cc2)cc1 [ZL0586(12)]
Anti-angiogenic activity, egg number 2 [1, 5]: + | Anti-angiogenic activity, egg number 3 [1, 5]: + | Anti-angiogenic activity, egg number 5 [1, 5]: + | Positive Ratio [1]: 2/5

O=C(Nc1ccc(C(F)(F)F)cc1)N1CCN(c2ccc(O)cc2)CC1 [ZL0589(14)]
Anti-angiogenic activity, egg number 5 [1, 5]: + | Positive Ratio [1]: 2/5

N#CC(=NNc1ccc2c(c1)CCC(=O)N2)C(=O)c1ccc(OC(F)(F)F)cc1 [ZL0593(15)]
Anti-angiogenic activity, egg number 3 [1, 5]: + | Positive Ratio [1]: 3/5
